Structures can show the parent of a compound that is named as a salt.
Experiments:
ALDH2 = molecular target: T1, ALDH2 (Homo sapiens, UniProt P05091); experiment: Inhibition of ALDH isoenzymes (NAD(P)H formation at 340 nm, purified recombinant enzyme); assay type: biochemical; design: key to ALDH2 inhibition at 20 μM (N.I.): N.I.: No inhibition at 20 μM; details: compound at 20 μM; for remaining activity at 20 µM: read-out: ALDH2 % Control at 20 μM;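 as to all read-outs here: run at 25 °C, started by adding substrate after 2 min preincubation, with 100-200 nM ALDH2, 200 µM NAD+, 100 µM propionaldehyde, 1% DMSO in BES buffer pH 7.5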
T1 sequence (P05091 18-517): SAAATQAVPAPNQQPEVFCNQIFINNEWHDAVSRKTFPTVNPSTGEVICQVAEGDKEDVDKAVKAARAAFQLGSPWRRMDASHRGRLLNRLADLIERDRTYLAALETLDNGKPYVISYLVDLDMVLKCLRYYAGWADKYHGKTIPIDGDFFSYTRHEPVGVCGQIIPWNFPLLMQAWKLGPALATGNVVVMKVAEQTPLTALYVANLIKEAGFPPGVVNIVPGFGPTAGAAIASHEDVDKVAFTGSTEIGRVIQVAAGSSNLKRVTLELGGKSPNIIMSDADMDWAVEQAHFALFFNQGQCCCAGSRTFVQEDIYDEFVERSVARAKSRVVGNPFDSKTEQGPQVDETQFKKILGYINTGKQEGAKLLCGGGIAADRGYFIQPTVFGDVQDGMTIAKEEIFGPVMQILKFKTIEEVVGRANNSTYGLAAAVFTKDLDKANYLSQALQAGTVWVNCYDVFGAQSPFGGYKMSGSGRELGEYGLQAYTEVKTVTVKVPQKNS

OVSAHO = OVSAHO Cell Viability; assay type: cell-based; details: for OVSAHO Cell Viability (50 μM) % CD133 + % ctrl / OVSAHO Cell Viability (30 μM) % CD133 + % ctrl: CD133+ cells; for OVSAHO Cell Viability (50 μM) Total Cell % ctrl / OVSAHO Cell Viability (30 μM) Total Cell % ctrl: total cells
ALDH1A2 = molecular target: T2, ALDH1A2 (Homo sapiens, UniProt O94788); experiment: Inhibition of ALDH isoenzymes (NAD(P)H formation at 340 nm, purified recombinant enzyme); assay type: biochemical; details: for IC50: 100-200 nM enzyme, 200 μM NAD+, 100 μM propionaldehyde, pH 7.5, 25° C.; for remaining activity at 20 µM: compound at 20 μM, read-out: ALDH1A2 % Control at 20 μM
T2 sequence (O94788 1-518): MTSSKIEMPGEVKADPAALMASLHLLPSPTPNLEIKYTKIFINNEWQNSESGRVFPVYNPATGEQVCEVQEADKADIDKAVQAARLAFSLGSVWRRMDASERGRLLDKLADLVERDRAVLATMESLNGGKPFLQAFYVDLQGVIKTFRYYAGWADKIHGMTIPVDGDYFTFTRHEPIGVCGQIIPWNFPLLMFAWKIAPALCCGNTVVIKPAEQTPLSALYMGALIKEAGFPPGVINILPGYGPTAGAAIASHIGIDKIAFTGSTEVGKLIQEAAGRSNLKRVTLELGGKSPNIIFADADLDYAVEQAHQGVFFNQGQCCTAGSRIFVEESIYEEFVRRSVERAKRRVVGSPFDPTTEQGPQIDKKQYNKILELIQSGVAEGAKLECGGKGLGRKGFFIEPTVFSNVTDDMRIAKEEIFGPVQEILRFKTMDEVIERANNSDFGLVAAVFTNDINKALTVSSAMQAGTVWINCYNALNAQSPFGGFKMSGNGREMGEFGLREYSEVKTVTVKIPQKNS

ALDH1A3 = molecular target: T3, ALDH1A3 (Homo sapiens, UniProt P47895); experiment: as above; assay type: biochemical; details: for IC50: 100-200 nM enzyme, 200 μM NAD+, 100 μM propionaldehyde, pH 7.5, 25° C.; for remaining activity at 20 µM: compound at 20 μM, read-out: ALDH1A3 % Control at 20 μM
T3 sequence (P47895 1-512): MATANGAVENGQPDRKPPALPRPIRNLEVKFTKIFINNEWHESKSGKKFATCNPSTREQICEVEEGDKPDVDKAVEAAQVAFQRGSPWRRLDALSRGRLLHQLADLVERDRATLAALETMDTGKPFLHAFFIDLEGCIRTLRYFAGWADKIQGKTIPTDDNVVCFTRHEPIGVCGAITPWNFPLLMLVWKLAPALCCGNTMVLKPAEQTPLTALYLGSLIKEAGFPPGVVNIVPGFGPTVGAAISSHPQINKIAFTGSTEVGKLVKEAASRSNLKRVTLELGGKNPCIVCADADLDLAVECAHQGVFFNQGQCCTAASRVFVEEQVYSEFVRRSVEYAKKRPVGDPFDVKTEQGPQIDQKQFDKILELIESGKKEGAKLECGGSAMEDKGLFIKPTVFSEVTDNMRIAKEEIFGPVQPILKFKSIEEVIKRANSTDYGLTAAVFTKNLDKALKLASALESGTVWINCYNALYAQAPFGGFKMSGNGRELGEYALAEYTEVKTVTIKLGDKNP

ALDH1A1 = molecular target: T4, ALDH1A1 (Homo sapiens, UniProt P00352); experiment: as above; assay type: biochemical; details: for IC50: 100-200 nM enzyme, 200 μM NAD+, 100 μM propionaldehyde, pH 7.5, 25° C.; for remaining activity at 20 µM: compound at 20 μM, read-out: ALDH1A1 % Control at 20 μM
T4 sequence (P00352 1-501): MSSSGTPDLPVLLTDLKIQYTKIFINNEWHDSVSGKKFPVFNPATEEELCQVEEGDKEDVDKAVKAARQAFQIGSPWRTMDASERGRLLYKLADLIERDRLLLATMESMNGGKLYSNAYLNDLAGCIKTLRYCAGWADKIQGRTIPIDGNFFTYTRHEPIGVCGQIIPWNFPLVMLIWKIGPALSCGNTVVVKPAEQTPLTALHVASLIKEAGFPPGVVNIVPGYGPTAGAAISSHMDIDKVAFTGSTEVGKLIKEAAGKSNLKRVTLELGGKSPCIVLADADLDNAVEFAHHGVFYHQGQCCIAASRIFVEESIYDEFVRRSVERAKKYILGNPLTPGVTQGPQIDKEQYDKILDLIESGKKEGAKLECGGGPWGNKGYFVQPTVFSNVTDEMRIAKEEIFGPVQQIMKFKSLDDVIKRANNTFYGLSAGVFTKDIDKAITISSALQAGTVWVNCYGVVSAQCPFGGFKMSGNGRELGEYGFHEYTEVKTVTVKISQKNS

Row | remaining activity at 20 µM (ALDH2) [%] | IC50 (ALDH1A2) [nM] | IC50 (ALDH1A3) [nM] | IC50 (ALDH1A1) [nM] | remaining activity at 20 µM (ALDH1A2) [%] | remaining activity at 20 µM (ALDH1A3) [%] | ALDH2 inhibition at 20 μM (N.I.) (ALDH2) | remaining activity at 5 µM (ALDH1A2; compound at 5 μM (footnote *), read-out: ALDH1A2 % Control at 5 μM) [%] | remaining activity at 5 µM (ALDH1A3; compound at 5 μM (footnote *), read-out: ALDH1A3 % Control at 5 μM) [%] | remaining activity at 20 µM (ALDH1A1) [%] | Compound | OVSAHO Cell Viability (50 μM) % CD133 + % ctrl (OVSAHO) [% ctrl] | OVSAHO Cell Viability (50 μM) Total Cell % ctrl (OVSAHO) [% ctrl] | OVSAHO Cell Viability (30 μM) % CD133 + % ctrl (OVSAHO) [% ctrl] | OVSAHO Cell Viability (30 μM) Total Cell % ctrl (OVSAHO) [% ctrl]
1 | 82 | 400 | 250 | 320 |  |  |  |  |  |  | CCn1ncc2c(=O)n(-c3ccccc3)c(SCc3cccc(F)c3)nc21 [Example 14, 1-ethyl-6-((3-fluorobenzyl)thio)-5-phenyl-1H-pyrazolo[3,4-d]pyrimidin-4(5H)-one] | 39 | 13 |  | 
2 | 98 | 600 | 153 | 172 |  |  |  |  |  |  | CCn1cc2c(=O)n(-c3ccccc3)c(SCc3cccc(F)c3)nc2n1 [Example 15, 2-ethyl-6-((3-fluorobenzyl)thio)-5-phenyl-2H-pyrazolo[3,4-d]pyrimidin-4(5H)-one] | 83 | 51 |  | 
3 | 88 |  |  | 4100 | 92 | 100 |  |  |  |  | Cn1ncc2c(=O)n(-c3ccccc3O)c(SCc3cccc(F)c3)nc21 [Example 33, 6-((3-fluorobenzyl)thio)-5-(2-hydroxyphenyl)-1-methyl-1H-pyrazolo[3,4-d]pyrimidin-4(5H)-one] | 92 | 18 |  | 
4 | 96 | 940 | 390 | 1200 |  |  |  |  |  |  | CC(C)CCSc1nc2c(cnn2C)c(=O)n1-c1ccccc1 [Example 38, 6-(isopentylthio)-1-methyl-5-phenyl-1H-pyrazolo[3,4-d]pyrimidin-4(5H)-one] | 50 | 39 |  | 
5 |  | > 10000 | > 10000 | 1700 |  |  | N.I. |  |  |  | Cc1ccccc1-n1c(OCc2cc3ccccc3s2)nc2c(cnn2C)c1=O [Example 40, 6-(benzo[b]thiophen-2-ylmethoxy)-1-methyl-5-(o-tolyl)-1H-pyrazolo[3,4-d]pyrimidin-4(5H)-one] | 50 | 15 |  | 
6 | 100 | 1720 | 1750 | 73 |  |  |  |  |  |  | Cn1ncc2c(=O)n(-c3ccccc3)c(SCc3cccc(C(=O)C(F)(F)F)c3)nc21 [Example 57, 1-methyl-5-phenyl-6-((3-(2,2,2-trifluoroacetyl)benzyl)thio)-1H-pyrazolo[3,4-d]pyrimidin-4(5H)-one] |  |  | 84 | 29
7 | 102 |  |  | 2280 |  |  |  | 43 | 61 |  | O=c1c2cn(CC3COC3)nc2nc(OCc2cccc(F)c2)n1-c1ccccc1 [Example 63] |  |  | 81 | 18
8 | 97 |  |  |  | 21 | 4 |  |  |  | 7 | CC1(Cn2cc3c(=O)n(-c4ccccc4)c(SCc4cccc(F)c4)nc3n2)COC1 [Example 67, 6-((3-fluorobenzyl)thio)-2-((3-methyloxetan-3-yl)methyl)-5-phenyl-2H-pyrazolo[3,4-d]pyrimidin-4(5H)-one] |  |  | 100 | 16
9 | 93 |  |  |  | 14 | 10 |  |  |  | 14 | O=c1c2cn(CC3CNC3)nc2nc(SCc2cccc(F)c2)n1-c1ccccc1 [Example 68, 3-((6-((3-fluorobenzyl)thio)-4-oxo-5-phenyl-4,5-dihydro-2H-pyrazolo[3,4-d]pyrimidin-2-yl)methyl)azetidin-1-ium sulfate] |  |  |  | 16
10 | 95 |  |  |  | 19 | 9 |  |  |  | 18 | C[C@H](Sc1nc2c(cnn2C)c(=O)n1-c1ccccc1)c1ccccc1 [Example 69, (S)-1-methyl-5-phenyl-6-((1-phenylethyl)thio)-1H-pyrazolo[3,4-d]pyrimidin-4(5H)-one] |  |  | 80 | 25
11 | 90 |  |  |  | -14 | -10 |  |  |  | -5 | CCC(Sc1nc2c(cnn2C)c(=O)n1-c1ccccc1)c1ccccc1 (stereo not drawn) [Example 70, 1-methyl-5-phenyl-6-((1-phenylpropyl)thio)-1H-pyrazolo[3,4-d]pyrimidin-4(5H)-one] |  |  | 56 | 17
12 | 102 |  |  |  | 23 | 17 |  |  |  | 22 | Cn1ncc2c(=O)n(-c3ccccc3)c(SC(C)(C)c3ccccc3)nc21 [Example 77, 1-methyl-5-phenyl-6-((2-phenylpropan-2-yl)thio)-1H-pyrazolo[3,4-d]pyrimidin-4(5H)-one] |  |  |  | 
